Reference: patent US20130121961A1, “TREATMENT MODALITIES TO PREVENT OR TREAT LOSS OF CARDIOVASCULAR FUNCTION IN AGING HUMANS” (THE JOHNS HOPKINS UNIVERSITY, priority 2011, published 2013)
“Also recorded” adds a separate entry of the source. Read-outs that look alike come from different tables or passages of the source. Each block holds one compound with its values, some of them ahead of it.

Experiments:
[1] = tested on: WT mouse aorta; assay: Force-tension myography, ACH dependent vasorelaxation of phenylephrine pre-constricted WT aortic rings; type: cell-based
Excerpt: (§1) Animals: Age-matched IL-10 deficient (IL-10(tm/tm)); B6.129P2IL10tm1Cgn/J and control mice (C576L6; WT) were obtained from Jackson Laboratories (Bar Harbor, Me., USA). IL-10(tm/tm) mice used are homozygous for the IL10tm1Cgn targeted mutation. These mice were housed in Association for Assessment and Accreditation of Laboratory Animal Care International accredited facilities and pathogen contact prevention (prophylaxis from infections, inflammatory bowel disease and early mortality) was achieved under specific pathogen-free (SPF) barrier conditions until terminal experiments were carried out. It is known that the pro-inflammatory potential achieved by the lack of IL-10 in this mouse model can be attributed to activation of TNF-α and IL-1β synthesis via IFN-γ, which is produced in massive amounts and also is important inantigen presentation and pathogen death via activation of macrophages. Animals with any signs of inflammatory/infectious disease were ruled out of the study. The study was performed at approximately 3-4 months (young) and 9 months of age or greater (old).
(§2) Vascular endothelial function was assessed using force-tension myography. Mouse aortas were isolated and cleaned in ice-cold Krebs-Ringer-bicarbonate solution containing the following (in mM): 118.3 NaCI, 4.7 KCI, 1.6 CaCl2, 1.2 KH2 PO4, 25 NaHCO3, 1.2 MgSO4, and 11.1 dextrose. Vascular tension changes were determined as previously described (J Appl Physiol, 2000. 89(6): p. 2382-90). Briefly, one end of the aortic rings was connected to a transducer, and the other to a micromanipulator. The aorta was immersed in a bath filled with constantly oxygenated Krebs buffer at 37° C. Equal size thoracic aortic rings (2 mm) were mounted using a microscope, ensuring no damage to the smooth muscle or endothelium. The aortas were passively stretched to an optimal resting tension using the micromanipulator, after which a dose of 60 mM KCI was administered, and repeated after a wash with Krebs buffer. After these washes, the vessels were allowed to equilibrate for 20-30 min. Phenylephrine (1 μM) was administered to induce vasoconstriction. A dose-dependent response (1 nM to 10 μM), with the muscarinic agonist, ACH, was then performed. The responses were repeated in the presence of inhibitors. Relaxation responses were calculated as a percentage of tension following pre-constriction. Sigmoidal dose-response curves were fitted to data with the minimum constrained to 0.
(§3) Vascular Studies. In ex vivo myograph experiments, measured tension represents a balance between vasorelaxant and vasoconstrictor dependent function and mediators. In phenylephrine pre-constricted isolated mouse aorta, ACH stimulates the release of endothelial factors, which mediate vasorelaxation as a result of greater relaxation than constriction.

[2] = tested on: IL-10(tm/tm) mouse aorta; assay: Force-tension myography, ACH dependent vasorelaxation of phenylephrine pre-constricted IL-10(tm/tm) aortic rings; type: cell-based; details: for EC50 / Emax: Mus musculus; for Effect on endothelial dependent vasorelaxation / Effect on vasoconstrictive responses to ACH: old IL-10(tm/tm) aortas
Excerpt: as §1, §2, §3

[3] = pre-incubation with 100 nM SQ29548
[4] = pre-incubation with 3 μM indomethacin
[5] = pre-incubation with 5 μM nimesulide

EC50 ([1]; old WT mice aortas, n=6, read-out: EC50 of ACH mediated vasorelaxation): 0.251 µM | EC50 ([1]; young WT mice aortas, phenylephrine pre-constricted, read-out: EC50 of ACH dose response (vasorelaxation)): 0.126 µM | EC50 ([2]; old IL-10(tm/tm) mice aortas, n=6, read-out: EC50 of ACH mediated vasorelaxation): 0.0394 µM | EC50 ([2]; young IL-10(tm/tm) mice aortas, phenylephrine pre-constricted, read-out: EC50 of ACH dose response (vasorelaxation)): 0.0501 µM
SMILES: CC(=O)OCC[N+](C)(C)C [ACH, Acetylcholine]
Emax ([1]; old WT mice aortas, n=6, read-out: Emax of ACH mediated vasorelaxation): 98.5 ± 14.1% | Emax ([1]; young WT mice aortas, phenylephrine pre-constricted, read-out: Emax of ACH dose response (vasorelaxation)): 80.9 ± 4.6% | Emax ([2]; old IL-10(tm/tm) mice aortas, n=6, read-out: Emax of ACH mediated vasorelaxation): 30.7 ± 9.3% | Emax ([2]; young IL-10(tm/tm) mice aortas, phenylephrine pre-constricted, read-out: Emax of ACH dose response (vasorelaxation)): 71.9 ± 5.7%

SMILES: O=C(O)CCC/C=C\C[C@@H]1[C@H](CNNC(=O)Nc2ccccc2)[C@H]2CC[C@@H]1O2 [SQ29548]
Effect on endothelial dependent vasorelaxation [2, 3]: enhanced endothelial dependent vasorelaxation; also recorded: significantly improved endothelial dependent vasorelaxation | Effect on vasoconstrictive responses to ACH [2, 3]: abolished the vasoconstrictive responses

SMILES: COc1ccc2c(c1)c(CC(=O)O)c(C)n2C(=O)c1ccc(Cl)cc1 [indomethacin]
Effect on endothelial dependent vasorelaxation [2, 4]: significantly improved endothelial dependent vasorelaxation | Effect on vasoconstrictive responses to ACH [2, 4]: abolished the vasoconstrictive responses

SMILES: CS(=O)(=O)Nc1ccc([N+](=O)[O-])cc1Oc1ccccc1 [nimesulide]
Effect on endothelial dependent vasorelaxation [2, 5]: enhanced endothelial dependent vasorelaxation; also recorded: significantly improved endothelial dependent vasorelaxation | Effect on vasoconstrictive responses to ACH [2, 5]: abolished the vasoconstrictive responses
